Consider 4 compounds from BindingDB's records for doi:10.1021/jm00104a010 (University of Illinois At Chicago, 1992).

The target of this assay is Reverse transcriptase (Human immunodeficiency virus 2). Put plainly: Inhibition of purified HIV-2 reverse transcriptase.
Consider `O=C(O)c1cc(NS(=O)(=O)c2ccc(-c3ccc(S(=O)(=O)Nc4cc(C(=O)O)c(O)c(S(=O)(=O)O)c4)cc3)cc2)cc(S(=O)(=O)O)c1O`, for which the midpoint of inhibition, the IC50, lay at 478 µM. With `O=C(O)CCCCCCCCC(=O)Nc1cc(S(=O)(=O)O)cc2cc(S(=O)(=O)O)cc(O)c12` the figure was 170 µM. With `Nc1c(S(=O)(=O)O)cc2cc(S(=O)(=O)O)cc(O)c2c1O` the figure was 452 µM. As for `O=C(CCCCCCCCC(=O)Nc1cc(S(=O)(=O)O)cc2cc(S(=O)(=O)O)cc(O)c12)Nc1cc(S(=O)(=O)O)cc2cc(S(=O)(=O)O)cc(O)c12`, the figure is 122 µM.
